Reference: paper PMC3006138, “Fexinidazole – A New Oral Nitroimidazole Drug Candidate Entering Clinical Development for the Treatment of Sleeping Sickness” (PLoS Neglected Tropical Diseases, 2010)
Read-outs that look alike come from different tables or passages of the source.

Legend:
[1] = One-electron reduction potential by pulse radiolysis; assay type: physicochemical
Procedure: One-electron reduction potentials were determined by pulse radiolysis following an established procedure.

[2] = Rat 28-day toxicokinetics; assay type: in vivo; conditions: plasma, po; for AUC: read-out: AUC within 24 hours post dosing; for half-life: read-out: apparent terminal half-life (converted)
Procedure: In the rat repeated-dose toxicokinetic study, fexinidazole was administered orally by gavage once a day for 28 consecutive days to ten or fifteen Crl:CD (SD)IGS BR rats/sex/group at doses of 50, 200, or 800 mg/kg/day. A control group received the vehicle alone (5% Tween 80/0.5% methocel). Ten animals/sex/group were sacrificed at the end of the treatment period on day 29 or 30 of study. The remaining 5 animals/sex/group in the control and high-dose groups were sacrificed on day 43 at the end of a 2-weeks observation period. Systemic exposure to fexinidazole and its sulfoxide and sulfone metabolites was evaluated in three additional animals/sex/group. Samples were taken at predose, and 30 min, 1, 2, 4, 8 and 24 h after dosing on days 1, 14, and 28, and in addition at 48 and 72 h after treatment on day 28.
Toxicokinetic Report for the study No. 0504-2007
SD Standard deviation of the mean […]
t1/2,z Terminal half-life tmax Time to peak plasma concentration
ULOQ Upper limit of quantification
The study was conducted according to the study protocol and related amendment.
Fexinidazole was orally given by gavage once a day for 28 days to male and female Sprague Dawley rats according to the following scheme
Fexinidazole was suspended with 5% Tween 80 in 0.5% Methyl cellulose 400 cP.
6.2. Sample Collection and Handling
Blood samples (about 0.25 mL/sampling time) were withdrawn from retro-orbital sinus plexus under isofluorane anesthesia and put in heparinized plastic tubes kept on a ice-water bath, then centrifuged for 10 min at 1200g at +4°C and two aliquots of about 50 μL of plasma were stored in a freezer at -80°C until analysis. Blood was taken from three rats/gender/dose on Days 1 and 14 at pre-dose and 0.5, 1, 2, 4, 8 and 24 hours after dosing, on Day 28 at pre-dose and 1, 2, 4, 8, 24, 48 and 72 hours after dosing. After the administration of the vehicle, the samples were taken from three rats/gender at pre-dose and […]
6.3. Bioanalytical Method
Rat plasma concentrations of Fexinidazole and its sulfoxide (M1) and sulfone (M2) metabolites were determined by a validated LC/MS/MS method. The calibration range for the assay was 5-1000 ng/mL for Fexinidazole and 25-25000 ng/mL for M1 and M2.
Study samples containing analytes concentrations above the upper limit of quantitation were diluted with blank matrix prior to analysis.
6.4. Pharmacokinetic Calculations
Pharmacokinetic evaluation was carried out using non-compartmental approach with the aid […]
Excel spreadsheet (Microsoft Inc., Seattle, USA). […]
In the calculations, the undetectable concentrations between detectable ones were ignored.
After each dose level, Cmax and tmax of Fexinidazole and sulfoxide and sulfone metabolites […]
linear trapezoidal rule up to the last detectable concentration. On Day 28, since the blood […]
24 hours post dosing was calculated and denoted AUC0-24. This AUC was calculated in order to compare AUC values on Day 28 to those on Day 1 and Day 14. On Day 28, in addition, the half-life of the terminal phase, t1/2,z, was determined by linear regression analysis of the natural-log concentration vs. time curve, where t1/2,z = ln(2)/slope of the regression line.
Fexinidazole and metabolites accumulation ratios, based on Cmax (RA,Cmax), AUC0-24 (RA,AUC0-24) and AUC0-t(last) (RA,AUC0-t(last)), were calculated as the ratio between the parameters obtained on Day 14 and Day 28 to the corresponding one at Day 1. […]
pharmacokinetic parameters of each compound sorted by dose, gender and day of dosing. […]
compound are reported in Tables 1 and 2, whilst individual and mean parameters of each […]
Individual and mean (±SD, CV%) plasma
2A1 - 19A1 of Appendix 1. Individual plasma concentrations of Fexinidazole and both metabolites are plot in Figures 1 - 9, whilst the mean concentrations are plot in Figures 10 - 15. Mean normalized Cmax and AUC0-t(last) values of Fexinidazole and metabolites vs. dose are plot in Figures 16 - 21.
In-study bioanalytical validation data are reported in Appendix 2. All analytical batches met […]

[3] = Sprague Dawley (Crl:CD (SD)IGS BR), 50 mg/kg/day, Day 28, female
[4] = Sprague Dawley (Crl:CD (SD)IGS BR), 200 mg/kg/day, Day 28, female
[5] = Sprague Dawley (Crl:CD (SD)IGS BR), 200 mg/kg/day, Day 28, male
[6] = Sprague Dawley (Crl:CD (SD)IGS BR), 800 mg/kg/day, Day 28, female (n=2)
[7] = Sprague Dawley (Crl:CD (SD)IGS BR), 800 mg/kg/day, Day 28, male
[8] = Sprague-Dawley (Crl:CD (SD)IGS BR), 50 mg/kg/day, 50 mg/kg/day po, day 1
[9] = Sprague-Dawley (Crl:CD (SD)IGS BR), 50 mg/kg/day, 50 mg/kg/day po, day 14
[10] = Sprague-Dawley (Crl:CD (SD)IGS BR), 200 mg/kg/day, 200 mg/kg/day po, day 1
[11] = both sexes, Sprague-Dawley (Crl:CD (SD)IGS BR), 200 mg/kg/day, 200 mg/kg/day po, day 14
[12] = both sexes, Sprague-Dawley (Crl:CD (SD)IGS BR), 800 mg/kg/day, 800 mg/kg/day po, day 1
[13] = both sexes, Sprague-Dawley (Crl:CD (SD)IGS BR), 800 mg/kg/day, 800 mg/kg/day po, day 14

## CSc1ccc(OCc2ncc([N+](=O)[O-])n2C)cc1 [Fexinidazole, 1-methyl-2-((p-(methylthio)phenoxy)methyl)-5-nitroimidazole]
[1]
  single electron redox potential: −511 mV
[2]; [3]
  AUC: 1450 ± 335 ng·h/mL
  half-life: 306 ± 306 min
[2]; Sprague Dawley (Crl:CD (SD)IGS BR), 50 mg/kg/day, Day 28, male
  half-life: 282 ± 72 min
[2]; [4]
  AUC: 4440 ± 514 ng·h/mL
  half-life: 378 ± 270 min
[2]; [5]
  AUC: 2330 ± 1760 ng·h/mL
  half-life: 528 ± 288 min
[2]; [6]
  AUC: 7640 ± 1780 ng·h/mL
  half-life: 402 ± 138 min
[2]; [7]
  AUC: 3170 ± 734 ng·h/mL
  half-life: 660 ± 162 min
[2]; [8]
  Cmax: 90 ± 70 ng/mL
  Tmax: 1.42 ± 1.28 h
[2]; Sprague-Dawley (Crl:CD (SD)IGS BR), 50 mg/kg/day, 50 mg/kg/day po, day 1, read-out: AUC0-t(last)
  AUC(0-t): 470 ± 340 ng·h/mL
[2]; [9]
  Cmax: 180 ± 140 ng/mL
  Tmax: 1.92 ± 1.2 h
[2]; Sprague-Dawley (Crl:CD (SD)IGS BR), 50 mg/kg/day, 50 mg/kg/day po, day 14, read-out: AUC0-t(last)
  AUC(0-t): 830 ± 540 ng·h/mL
[2]; [10]
  Cmax: 380 ± 280 ng/mL
  Tmax: 1.92 ± 1.2 h
[2]; both sexes, Sprague-Dawley (Crl:CD (SD)IGS BR), 200 mg/kg/day, 200 mg/kg/day po, day 1, read-out: AUC0-t(last)
  AUC(0-t): 2160 ± 1340 ng·h/mL
[2]; [11]
  Cmax: 520 ± 300 ng/mL
  Tmax: 2.08 ± 1.11 h
[2]; both sexes, Sprague-Dawley (Crl:CD (SD)IGS BR), 200 mg/kg/day, 200 mg/kg/day po, day 14, read-out: AUC0-t(last)
  AUC(0-t): 3020 ± 1470 ng·h/mL
[2]; [12]
  Cmax: 1480 ± 710 ng/mL
  Tmax: 1.58 ± 0.66 h
[2]; both sexes, Sprague-Dawley (Crl:CD (SD)IGS BR), 800 mg/kg/day, 800 mg/kg/day po, day 1, read-out: AUC0-t(last)
  AUC(0-t): 12800 ± 4100 ng·h/mL
[2]; [13]
  Cmax: 1020 ± 870 ng/mL
  Tmax: 3.17 ± 2.84 h
[2]; both sexes, Sprague-Dawley (Crl:CD (SD)IGS BR), 800 mg/kg/day, 800 mg/kg/day po, day 14, read-out: AUC0-t(last)
  AUC(0-t): 9290 ± 5200 ng·h/mL
[2]; female, Sprague Dawley (Crl:CD (SD)IGS BR), 50 mg/kg, Day 1, female
  Cmax: 149 ± 46 ng/mL
[2]; female, Sprague Dawley (Crl:CD (SD)IGS BR), 50 mg/kg, Day 1, female, read-out: AUC0-t(last)
  AUC(0-t): 759 ± 153 ng·h/mL
[2]; female, Sprague Dawley (Crl:CD (SD)IGS BR), 50 mg/kg/day, Day 28, female
  Cmax: 422 ± 358 ng/mL
[2]; female, Sprague Dawley (Crl:CD (SD)IGS BR), 50 mg/kg/day, Day 28, female, read-out: AUC0-t(last)
  AUC(0-t): 1630 ± 570 ng·h/mL
[2]; female, Sprague Dawley (Crl:CD (SD)IGS BR), 200 mg/kg, Day 1, female
  Cmax: 604 ± 211 ng/mL
[2]; female, Sprague Dawley (Crl:CD (SD)IGS BR), 200 mg/kg, Day 1, female, read-out: AUC0-t(last)
  AUC(0-t): 3200 ± 856 ng·h/mL
[2]; female, Sprague Dawley (Crl:CD (SD)IGS BR), 200 mg/kg/day, Day 28, female
  Cmax: 903 ± 87 ng/mL
[2]; female, Sprague Dawley (Crl:CD (SD)IGS BR), 200 mg/kg/day, Day 28, female, read-out: AUC0-t(last)
  AUC(0-t): 4750 ± 508 ng·h/mL
[2]; female, Sprague Dawley (Crl:CD (SD)IGS BR), 800 mg/kg, Day 1, female
  Cmax: 1480 ± 200 ng/mL
[2]; female, Sprague Dawley (Crl:CD (SD)IGS BR), 800 mg/kg, Day 1, female, read-out: AUC0-t(last)
  AUC(0-t): 15700 ± 3610 ng·h/mL
[2]; female, Sprague Dawley (Crl:CD (SD)IGS BR), 800 mg/kg/day, Day 28, female (n=2)
  Cmax: 749 ± 90 ng/mL
[2]; female, Sprague Dawley (Crl:CD (SD)IGS BR), 800 mg/kg/day, Day 28, female (n=2), read-out: AUC0-t(last)
  AUC(0-t): 7940 ± 2210 ng·h/mL
[2]; male, Sprague Dawley (Crl:CD (SD)IGS BR), 50 mg/kg, Day 1, male
  Cmax: 39 ± 17 ng/mL
[2]; male, Sprague Dawley (Crl:CD (SD)IGS BR), 50 mg/kg, Day 1, male, read-out: AUC0-t(last)
  AUC(0-t): 178 ± 99 ng·h/mL
[2]; male, Sprague Dawley (Crl:CD (SD)IGS BR), 50 mg/kg/day, Day 28, male
  Cmax: 133 ± 24 ng/mL
[2]; male, Sprague Dawley (Crl:CD (SD)IGS BR), 50 mg/kg/day, Day 28, male, read-out: AUC0-t(last)
  AUC(0-t): 889 ± 287 ng·h/mL
[2]; male, Sprague Dawley (Crl:CD (SD)IGS BR), 200 mg/kg, Day 1, male
  Cmax: 165 ± 97 ng/mL
[2]; male, Sprague Dawley (Crl:CD (SD)IGS BR), 200 mg/kg, Day 1, male, read-out: AUC0-t(last)
  AUC(0-t): 1120 ± 708 ng·h/mL
[2]; male, Sprague Dawley (Crl:CD (SD)IGS BR), 200 mg/kg/day, Day 28, male
  Cmax: 255 ± 136 ng/mL
[2]; male, Sprague Dawley (Crl:CD (SD)IGS BR), 200 mg/kg/day, Day 28, male, read-out: AUC0-t(last)
  AUC(0-t): 4410 ± 3980 ng·h/mL
[2]; male, Sprague Dawley (Crl:CD (SD)IGS BR), 800 mg/kg, Day 1, male
  Cmax: 1480 ± 1110 ng/mL
[2]; male, Sprague Dawley (Crl:CD (SD)IGS BR), 800 mg/kg, Day 1, male, read-out: AUC0-t(last)
  AUC(0-t): 10000 ± 2160 ng·h/mL
[2]; male, Sprague Dawley (Crl:CD (SD)IGS BR), 800 mg/kg/day, Day 28, male
  Cmax: 523 ± 127 ng/mL
[2]; male, Sprague Dawley (Crl:CD (SD)IGS BR), 800 mg/kg/day, Day 28, male, read-out: AUC0-t(last)
  AUC(0-t): 11900 ± 5360 ng·h/mL
